Laboratory results published in ChEMBL document CHEMBL2424545, “Structure-efficiency relationship of [1,2,4]triazol-3-ylamines as novel nicotinamide isosteres that inhibit tankyrases” (J Med Chem, 2013).
Values after ≈ are worked out from the molar mass of the structure shown.

Legend:
[1] = biological target: T1, Poly [ADP-ribose] polymerase tankyrase-2 (Homo sapiens, UniProt Q9H2K2); experiment: Inhibition of N-terminal GST-tagged TNKS2 (unknown origin) expressed in baculovirus infected sf21 cells after 60 mins by LC-MS analysis
T1 sequence (Q9H2K2 whole entry): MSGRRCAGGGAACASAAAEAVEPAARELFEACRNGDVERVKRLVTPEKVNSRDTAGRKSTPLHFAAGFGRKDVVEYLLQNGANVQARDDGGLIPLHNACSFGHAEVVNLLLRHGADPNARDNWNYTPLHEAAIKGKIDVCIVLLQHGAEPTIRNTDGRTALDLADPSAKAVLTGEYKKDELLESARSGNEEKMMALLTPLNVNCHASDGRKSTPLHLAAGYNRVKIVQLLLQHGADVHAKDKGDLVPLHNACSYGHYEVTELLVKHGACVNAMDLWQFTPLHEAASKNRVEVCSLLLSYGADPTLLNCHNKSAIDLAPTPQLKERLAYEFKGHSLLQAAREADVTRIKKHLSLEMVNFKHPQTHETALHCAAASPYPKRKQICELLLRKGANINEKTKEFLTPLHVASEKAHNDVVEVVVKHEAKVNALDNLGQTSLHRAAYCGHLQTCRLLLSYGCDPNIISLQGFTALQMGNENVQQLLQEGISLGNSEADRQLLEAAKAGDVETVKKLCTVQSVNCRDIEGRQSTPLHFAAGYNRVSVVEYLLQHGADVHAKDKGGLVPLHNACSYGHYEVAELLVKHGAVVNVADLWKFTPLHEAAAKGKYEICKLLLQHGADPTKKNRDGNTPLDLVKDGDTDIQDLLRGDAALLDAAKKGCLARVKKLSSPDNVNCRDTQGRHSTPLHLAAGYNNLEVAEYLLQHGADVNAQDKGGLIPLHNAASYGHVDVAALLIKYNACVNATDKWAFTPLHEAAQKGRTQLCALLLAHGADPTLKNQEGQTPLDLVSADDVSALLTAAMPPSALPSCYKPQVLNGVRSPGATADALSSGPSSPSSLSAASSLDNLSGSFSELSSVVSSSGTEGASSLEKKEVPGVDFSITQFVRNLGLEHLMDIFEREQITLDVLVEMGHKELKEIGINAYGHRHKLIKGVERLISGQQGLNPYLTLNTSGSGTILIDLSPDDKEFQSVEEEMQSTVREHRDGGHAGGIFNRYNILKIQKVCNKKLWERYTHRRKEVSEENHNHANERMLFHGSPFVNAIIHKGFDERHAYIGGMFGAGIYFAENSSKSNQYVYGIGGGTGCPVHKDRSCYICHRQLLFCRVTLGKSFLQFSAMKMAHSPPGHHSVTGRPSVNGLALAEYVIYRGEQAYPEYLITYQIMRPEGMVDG

[2] = Inhibition of Wnt signaling in human HEK293 cells by STF luciferase reporter gene assay
[3] = AUC (last) in C57BL/6 mouse at 5 mg/kg, po; format: ADME, organism-based; design: time 0 - last, dose 5 mg/kg, route oral; details: plasma
[4] = Mean residence time (0 to t) in C57BL/6 mouse at 1 mg/kg, iv; format: ADME, organism-based; design: dose 1 mg/kg, route intravenous; details: in vivo
[5] = Plasma clearance in C57BL/6 mouse at 1 mg/kg, iv; format: ADME, organism-based; design: dose 1 mg/kg, route intravenous
[6] = Solubility of the compound at pH 6.8; format: physicochemical; details: buffer
[7] = Hepatic extraction ratio in mouse liver microsomes; format: ADME, Microsome; details: read-out: ERH
[8] = Half life in C57BL/6 mouse at 1 mg/kg, iv; format: ADME, organism-based; design: dose 1 mg/kg, route intravenous; details: in vivo
[9] = Cmax in C57BL/6 mouse at 1 mg/kg, iv; format: ADME, organism-based; design: dose 1 mg/kg, route intravenous; details: in vivo
[10] = Oral bioavailability in C57BL/6 mouse at 5 mg/kg; format: ADME, organism-based; details: in vivo
[11] = Hepatic extraction ratio in human liver microsomes; format: ADME, Microsome; details: read-out: ERH
[12] = biological target: Poly [ADP-ribose] polymerase 1 (Homo sapiens, UniProt P09874)
Chain of Poly [ADP-ribose] polymerase 1 (P09874 whole entry): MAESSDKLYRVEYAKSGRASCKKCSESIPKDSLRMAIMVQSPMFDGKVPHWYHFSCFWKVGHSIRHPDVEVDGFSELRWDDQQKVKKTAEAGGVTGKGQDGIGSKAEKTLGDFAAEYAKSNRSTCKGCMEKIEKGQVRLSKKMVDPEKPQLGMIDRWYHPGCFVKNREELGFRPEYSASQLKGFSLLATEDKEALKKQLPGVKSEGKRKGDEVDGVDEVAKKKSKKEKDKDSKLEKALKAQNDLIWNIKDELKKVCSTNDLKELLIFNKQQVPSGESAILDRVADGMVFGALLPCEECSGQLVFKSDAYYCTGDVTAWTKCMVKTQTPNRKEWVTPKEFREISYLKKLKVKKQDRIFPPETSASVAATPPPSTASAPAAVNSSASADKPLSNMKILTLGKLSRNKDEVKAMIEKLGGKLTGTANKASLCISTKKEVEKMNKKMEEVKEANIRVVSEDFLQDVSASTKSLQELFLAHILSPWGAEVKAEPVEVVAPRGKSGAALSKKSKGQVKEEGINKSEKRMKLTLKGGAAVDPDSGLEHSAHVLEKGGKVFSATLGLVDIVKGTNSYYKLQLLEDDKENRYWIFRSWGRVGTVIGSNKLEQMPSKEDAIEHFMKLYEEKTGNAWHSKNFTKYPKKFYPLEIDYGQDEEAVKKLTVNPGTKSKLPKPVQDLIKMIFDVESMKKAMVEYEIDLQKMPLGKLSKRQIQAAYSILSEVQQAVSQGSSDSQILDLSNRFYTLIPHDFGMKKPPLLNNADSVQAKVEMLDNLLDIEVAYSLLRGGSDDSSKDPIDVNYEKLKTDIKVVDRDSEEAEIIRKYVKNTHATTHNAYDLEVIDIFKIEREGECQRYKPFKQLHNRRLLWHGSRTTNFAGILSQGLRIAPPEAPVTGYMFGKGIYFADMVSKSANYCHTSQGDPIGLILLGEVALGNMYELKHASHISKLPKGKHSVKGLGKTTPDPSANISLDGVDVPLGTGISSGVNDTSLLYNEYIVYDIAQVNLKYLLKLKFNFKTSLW
Description: Inhibition of human PARP1 after 60 mins by LC-MS analysis

Mus musculus = experiment: T(last) in C57BL/6 mouse at 1 mg/kg, iv; format: ADME, organism-based; design: dose 1 mg/kg, route intravenous; details: in vivo
[13] = Tmax in C57BL/6 mouse at 1 mg/kg, iv; format: ADME, organism-based; design: dose 1 mg/kg, route intravenous; details: in vivo
[14] = Tmax in C57BL/6 mouse at 5 mg/kg, po; format: ADME, organism-based; design: dose 5 mg/kg, route oral; details: in vivo
[15] = AUC (last) in C57BL/6 mouse at 1 mg/kg, iv; format: ADME, organism-based; design: time 0 - last, dose 1 mg/kg, route intravenous; details: plasma
[16] = Cmax in C57BL/6 mouse at 5 mg/kg, po; format: ADME, organism-based; design: dose 5 mg/kg, route oral; details: in vivo
[17] = biological target: T2, Poly [ADP-ribose] polymerase tankyrase-1 (Homo sapiens, UniProt O95271); experiment: Inhibition of N-terminal GST-tagged human TNKS1 expressed in baculovirus infected sf21 cells after 60 mins by LC-MS analysis
T2 sequence (O95271 whole entry): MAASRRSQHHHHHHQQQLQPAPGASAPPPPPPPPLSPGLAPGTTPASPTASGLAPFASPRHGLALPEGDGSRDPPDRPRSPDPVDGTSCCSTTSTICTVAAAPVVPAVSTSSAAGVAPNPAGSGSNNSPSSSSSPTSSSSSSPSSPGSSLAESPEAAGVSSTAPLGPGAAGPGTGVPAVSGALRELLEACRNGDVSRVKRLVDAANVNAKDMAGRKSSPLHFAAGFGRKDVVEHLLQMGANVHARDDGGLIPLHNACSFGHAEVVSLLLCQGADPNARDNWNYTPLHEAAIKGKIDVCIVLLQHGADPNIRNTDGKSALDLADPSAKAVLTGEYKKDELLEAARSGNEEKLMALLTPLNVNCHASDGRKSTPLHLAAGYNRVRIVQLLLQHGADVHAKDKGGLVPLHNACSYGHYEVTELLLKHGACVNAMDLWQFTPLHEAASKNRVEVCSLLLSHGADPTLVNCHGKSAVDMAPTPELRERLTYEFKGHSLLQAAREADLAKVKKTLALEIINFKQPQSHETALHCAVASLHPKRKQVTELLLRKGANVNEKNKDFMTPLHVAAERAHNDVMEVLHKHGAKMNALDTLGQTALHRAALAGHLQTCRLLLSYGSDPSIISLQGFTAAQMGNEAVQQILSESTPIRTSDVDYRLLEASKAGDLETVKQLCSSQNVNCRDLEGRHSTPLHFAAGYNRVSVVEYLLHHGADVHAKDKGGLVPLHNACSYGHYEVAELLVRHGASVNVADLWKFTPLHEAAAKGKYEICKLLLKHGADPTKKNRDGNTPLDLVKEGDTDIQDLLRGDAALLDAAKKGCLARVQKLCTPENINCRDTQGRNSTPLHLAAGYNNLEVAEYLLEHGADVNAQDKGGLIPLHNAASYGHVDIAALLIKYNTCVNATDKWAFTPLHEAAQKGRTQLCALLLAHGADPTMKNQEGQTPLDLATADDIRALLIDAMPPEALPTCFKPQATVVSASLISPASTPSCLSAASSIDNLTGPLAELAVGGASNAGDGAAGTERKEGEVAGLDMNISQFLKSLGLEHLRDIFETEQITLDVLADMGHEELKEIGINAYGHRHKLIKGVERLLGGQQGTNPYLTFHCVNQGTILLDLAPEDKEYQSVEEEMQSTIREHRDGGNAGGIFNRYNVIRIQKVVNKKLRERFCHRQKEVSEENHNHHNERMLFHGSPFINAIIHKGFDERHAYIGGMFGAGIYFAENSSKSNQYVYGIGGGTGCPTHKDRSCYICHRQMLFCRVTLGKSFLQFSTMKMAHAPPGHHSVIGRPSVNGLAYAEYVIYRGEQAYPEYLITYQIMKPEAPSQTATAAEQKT

[18] = Volume of distribution at steady state in C57BL/6 mouse at 1 mg/kg, iv; format: ADME, organism-based; design: dose 1 mg/kg, route intravenous; details: in vivo, read-out: Vdss(app)
[19] = Inhibition of TNKS in human SW480 cells assessed as stabilization of axin2 after 24 hrs by ELISA; format: cell-based
[20] = Volume of distribution in iv dosed Sprague-Dawley rat; format: ADME, organism-based; details: in vivo
[21] = Plasma clearance in iv dosed Sprague-Dawley rat; format: ADME, organism-based
[22] = biological target: Poly [ADP-ribose] polymerase 2 (Homo sapiens, UniProt Q9UGN5); experiment: Inhibition of PARP2 (unknown origin) after 60 mins by LC-MS analysis
Chain of Poly [ADP-ribose] polymerase 2 (Q9UGN5 whole entry): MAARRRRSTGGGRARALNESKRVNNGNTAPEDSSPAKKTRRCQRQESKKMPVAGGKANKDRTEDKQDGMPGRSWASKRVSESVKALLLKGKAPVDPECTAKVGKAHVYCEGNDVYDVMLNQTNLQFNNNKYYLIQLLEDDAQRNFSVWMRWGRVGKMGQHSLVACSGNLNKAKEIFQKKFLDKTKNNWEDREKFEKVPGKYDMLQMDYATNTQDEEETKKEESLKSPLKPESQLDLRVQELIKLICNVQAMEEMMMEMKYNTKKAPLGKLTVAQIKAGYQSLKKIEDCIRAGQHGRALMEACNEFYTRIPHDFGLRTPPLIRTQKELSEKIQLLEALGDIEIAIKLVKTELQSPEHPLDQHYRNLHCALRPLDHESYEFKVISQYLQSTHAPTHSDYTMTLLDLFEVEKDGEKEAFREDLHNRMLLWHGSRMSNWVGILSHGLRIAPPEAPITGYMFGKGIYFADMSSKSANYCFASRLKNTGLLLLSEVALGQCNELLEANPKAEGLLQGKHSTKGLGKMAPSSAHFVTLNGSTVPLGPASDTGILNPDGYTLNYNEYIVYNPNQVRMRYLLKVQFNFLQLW

IC50 [1] [nM]	IC50 [2] [nM]	hepatic extraction ratio [7]	IC50 [17] [nM]	IC50 [19] [nM]	SMILES	other results
70	1540				O=C(Nc1nnc2n1CCS2)C1CCCCC1	
> 19000					CC(=O)Nc1nnc2n1CCCS2	
444	17600				O=C(NCc1ccccc1)Nc1nnc2n1CCS2	
103	6450	0.29	395	7670	CC(C)CC(=O)Nc1nnc2n1CCS2	AUC(0-t) [3]: 8.6 µM·h; MRT last [4]: 6 min; clearance [5]: 17 mL/min/kg; solubility [6]: > 1000 µM; half-life [8]: 6 min; Cmax [9]: 19.1 µM; bioavailability [10]: 36%; hepatic extraction ratio [11]: 0.17; IC50 [12]: 55300 nM; Tlast (Mus musculus): 1 h; Tmax [13]: 18 min; Tmax [14]: 18 min; AUC(0-t) [15]: 4.73 µM·h; Cmax [16]: 13.7 µM; Vd [18]: 0.1 L/kg
> 19000					CC(=O)Nc1nnc2n1CCS2	
3	29	0.91	12	377	O=C(CCc1c(Cl)cccc1Cl)Nc1nnc2n1CCS2	solubility [6]: 16 µM (≈ 5.49 µg/mL); Vd [20]: 1.1 L/kg; clearance [21]: 45.6 mL/min/kg; IC50 [22]: > 19000 nM; hepatic extraction ratio [11]: 0.61; IC50 [12]: > 19000 nM
2010	> 50000				O=C(Nc1nnc2n1CCS2)C1CC1	
5	116	0.91	24	> 10000	O=C(CCc1ccc(Cl)cc1Cl)Nc1nnc2n1CCS2	IC50 [22]: 4700 nM; IC50 [12]: > 19000 nM
239	7270				O=C(Cc1ccccc1)Nc1nnc2n1CCS2	
26	2180				O=C(CCC1CCCCCC1)Nc1nnc2n1CCS2	
2760					O=C(Nc1nnc2n1CCCS2)c1ccccc1	
	78				Oc1nc(-c2ccc(C(F)(F)F)cc2)nc2c1CSCC2	
12	345				O=C(CCc1ccccc1F)Nc1nnc2n1CCS2	
202	10300				O=C(CC1CCOCC1)Nc1nnc2n1CCS2	
5	50	0.9	14	1400	O=C(CCc1ccccc1Cl)Nc1nnc2n1CCS2	solubility [6]: 32 µM (≈ 9.88 µg/mL); hepatic extraction ratio [11]: 0.66
1	20	0.92	7	> 10000	O=C(CCc1cccc(Cl)c1Cl)Nc1nnc2n1CCS2	IC50 [22]: 3800 nM; IC50 [12]: > 19000 nM
31	2390	0.84	299	> 10000	CC(C)(C)c1ccc(C(=O)Nc2nnc3n2CCS3)cc1	solubility [6]: > 100 µM; IC50 [22]: > 19000 nM; hepatic extraction ratio [11]: 0.36
